Test results from PubChem BioAssay AID248 (DTP/NCI, 2004).
Values joined by “and” are separate entries in the source; they are usually repeats but may differ in a detail not shown here. Equal entries are not always repeated. Toxic doses and inconclusive results are not listed. Rule as the data show it: active = T/C of 150% or more; inactive = T/C below 125%.

Tested on: L1210 leukemia ip in BDF1 mice, survival T/C
Assay: NCI In Vivo Anticancer Drug Screen. Data for tumor model L1210 Leukemia (intraperitoneal) in B6D2F1 (BDF1) mice
Settings: endpoint: mean survival time, higher = longer survival
Summary of the method: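 Survival endpoint. Drug-treated group vs vehicle group, expressed as T divided by C. Tumor passaged by transplantation.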

[1] = dose: 100.0 mg/kg/injection, schedule: Q01DX001 (ip), vehicle: Klucel (hydroxypropylcellulose) (HPC)
[2] = dose: 200.0 mg/kg/injection, schedule: Q01DX001 (ip), vehicle: Klucel (hydroxypropylcellulose) (HPC)
[3] = dose: 400.0 mg/kg/injection, schedule: Q01DX001 (ip), vehicle: Klucel (hydroxypropylcellulose) (HPC)
[4] = dose: 100.0 mg/kg/injection, schedule: Q01DX001 (ip), vehicle: other
[5] = dose: 200.0 mg/kg/injection, schedule: Q01DX001 (ip), vehicle: other
[6] = dose: 400.0 mg/kg/injection, schedule: Q01DX001 (ip), vehicle: other
[7] = dose: 100.0 mg/kg/injection, schedule: Q01DX001 (ip), vehicle: saline
[8] = dose: 200.0 mg/kg/injection, schedule: Q01DX001 (ip), vehicle: saline
[9] = dose: 400.0 mg/kg/injection, schedule: Q01DX001 (ip), vehicle: saline
[10] = dose: 100.0 mg/kg/injection, schedule: Q01DX009 (ip), vehicle: Klucel (hydroxypropylcellulose) (HPC)
[11] = dose: 100.0 mg/kg/injection, schedule: Q04DX003 (ip), vehicle: Klucel (hydroxypropylcellulose) (HPC)
[12] = dose: 200.0 mg/kg/injection, schedule: Q01DX009 (ip), vehicle: Klucel (hydroxypropylcellulose) (HPC)
[13] = dose: 200.0 mg/kg/injection, schedule: Q04DX003 (ip), vehicle: Klucel (hydroxypropylcellulose) (HPC)
[14] = dose: 400.0 mg/kg/injection, schedule: Q01DX009 (ip), vehicle: Klucel (hydroxypropylcellulose) (HPC)
[15] = dose: 400.0 mg/kg/injection, schedule: Q04DX003 (ip), vehicle: Klucel (hydroxypropylcellulose) (HPC)
[16] = dose: 25.0 mg/kg/injection, schedule: Q04DX003 (ip), vehicle: Klucel (hydroxypropylcellulose) (HPC)
[17] = dose: 50.0 mg/kg/injection, schedule: Q04DX003 (ip), vehicle: Klucel (hydroxypropylcellulose) (HPC)

Measured: T/C

CCOc1ccc(/C=N/NC(=S)NC23CC4CC(CC(C4)C2)C3)cc1OCC
inactive: dose: 75.0 mg/kg/injection, schedule: Q01DX001 (ip), vehicle: saline 94 % of control | dose: 150.0 mg/kg/injection, schedule: Q01DX001 (ip), vehicle: saline 95 % of control | dose: 300.0 mg/kg/injection, schedule: Q01DX001 (ip), vehicle: saline 94 % of control

NC(=S)c1ccc(N)cc1
inactive: dose: 12.5 mg/kg/injection, schedule: Q04DX003 (ip), vehicle: saline 105 % of control | dose: 25.0 mg/kg/injection, schedule: Q04DX003 (ip), vehicle: saline 103 % of control | dose: 50.0 mg/kg/injection, schedule: Q04DX003 (ip), vehicle: saline 97 % of control and 102 % of control | dose: 75.0 mg/kg/injection, schedule: Q04DX003 (ip), vehicle: saline 106 % of control | dose: 115.0 mg/kg/injection, schedule: Q04DX003 (ip), vehicle: saline 97 % of control

Cc1ccc2ccc3ccc4ccccc4c3c2c1
inactive: dose: 50.0 mg/kg/injection, schedule: Q01DX001 (ip), vehicle: Klucel (hydroxypropylcellulose) (HPC) 101 % of control | [1] 95 % of control | [2] 101 % of control

CN=C(NN)Nc1ccccc1
inactive: dose: 87.5 mg/kg/injection, schedule: Q04DX003 (ip), vehicle: saline 96 % of control | dose: 175.0 mg/kg/injection, schedule: Q04DX003 (ip), vehicle: saline 104 % of control | dose: 350.0 mg/kg/injection, schedule: Q04DX003 (ip), vehicle: saline 93 % of control

CC(C=O)C=O
inactive: [1] 91 % of control | [2] 88 % of control | [3] 89 % of control

COC(=O)C1C2C3CC(C4CC43)C12 (stereo not given)
inactive: dose: 100.0 mg/kg/injection, schedule: Q01DX009 (ip), vehicle: saline 92 % of control | dose: 100.0 mg/kg/injection, schedule: Q04DX003 (ip), vehicle: saline 93 % of control | dose: 200.0 mg/kg/injection, schedule: Q01DX009 (ip), vehicle: saline 92 % of control | dose: 200.0 mg/kg/injection, schedule: Q04DX003 (ip), vehicle: saline 107 % of control | dose: 400.0 mg/kg/injection, schedule: Q01DX009 (ip), vehicle: saline 96 % of control | dose: 400.0 mg/kg/injection, schedule: Q04DX003 (ip), vehicle: saline 96 % of control

Brc1cccc2nc(/C=C\c3ccccc3)ccc12
inactive: [4] 98 % of control | [5] 95 % of control | [6] 89 % of control

CC1CN1P(=S)(Oc1ccccc1)N1CC1C (stereo not given)
inactive: dose: 7.0 mg/kg/injection, schedule: Q01DX015 (ip), vehicle: carboxymethylcellulose (CMC) 94 % of control | dose: 13.0 mg/kg/injection, schedule: Q01DX015 (ip), vehicle: carboxymethylcellulose (CMC) 98 % of control | dose: 25.0 mg/kg/injection, schedule: Q01DX015 (ip), vehicle: carboxymethylcellulose (CMC) 97 % of control | dose: 50.0 mg/kg/injection, schedule: Q01DX015 (ip), vehicle: carboxymethylcellulose (CMC) 91 % of control | [7] 105 % of control | dose: 100.0 mg/kg/injection, schedule: Q01DX015 (ip), vehicle: carboxymethylcellulose (CMC) 103 % of control | [8] 102 % of control | dose: 200.0 mg/kg/injection, schedule: Q01DX015 (ip), vehicle: saline 95 % of control | [9] 100 % of control | dose: 400.0 mg/kg/injection, schedule: Q01DX015 (ip), vehicle: saline 91 % of control | dose: 800.0 mg/kg/injection, schedule: Q01DX001 (ip), vehicle: saline 95 % of control | dose: 1600.0 mg/kg/injection, schedule: Q01DX001 (ip), vehicle: saline 103 % of control

CCCCN1C(=O)C/C(=C2\CC(=O)N(CCCC)C2=O)C1=O
inactive: [10] 91 % of control | [11] 87 % of control | [12] 94 % of control | [13] 101 % of control | [14] 91 % of control | [15] 94 % of control

CC(=O)Oc1ccc2c(=O)c(-c3ccccc3)c(C)oc2c1
inactive: [4] 108 % of control | dose: 100.0 mg/kg/injection, schedule: Q04DX003 (ip), vehicle: saline with Tween-80 100 % of control | [5] 111 % of control | dose: 200.0 mg/kg/injection, schedule: Q04DX003 (ip), vehicle: saline with Tween-80 108 % of control | [6] 94 % of control | dose: 400.0 mg/kg/injection, schedule: Q04DX003 (ip), vehicle: saline with Tween-80 105 % of control

COC(=O)/C=C(\C)Nc1cccc([N+](=O)[O-])c1
inactive: [4] 94 % of control

CC(C)(C)c1cc(C(=S)N2CCOCC2)cc(C(C)(C)C)c1O
inactive: [1] 103 % of control | [2] 100 % of control | [3] 86 % of control

NN(CC1=COc2ccccc2O1)Cc1ccccc1
inactive: dose: 25.0 mg/kg/injection, schedule: Q01DX009 (ip), vehicle: Klucel (hydroxypropylcellulose) (HPC) 100 % of control | [16] 92 % of control | dose: 50.0 mg/kg/injection, schedule: Q01DX009 (ip), vehicle: Klucel (hydroxypropylcellulose) (HPC) 94 % of control | [17] 92 % of control | [10] 96 % of control | [11] 92 % of control | [12] 95 % of control | [13] 95 % of control | [15] 97 % of control

CCOC(=O)COc1ccc(/C=C/c2ccnc3ccccc23)cc1
inactive: [10] 100 % of control | [12] 106 % of control | [14] 94 % of control

COc1cc(/C=N\NC(=O)CC#N)cc(OC)c1OC
inactive: dose: 50.0 mg/kg/injection, schedule: Q01DX009 (ip), vehicle: saline with Tween-80 87 % of control | dose: 100.0 mg/kg/injection, schedule: Q01DX009 (ip), vehicle: saline with Tween-80 87 % of control | dose: 200.0 mg/kg/injection, schedule: Q01DX009 (ip), vehicle: saline with Tween-80 94 % of control

OC(c1nc2ccccc2[nH]1)C(O)C(O)C(O)c1nc2ccccc2[nH]1 (stereo not given)
inactive: [7] 105 % of control | dose: 100.0 mg/kg/injection, schedule: Q04DX002 (ip), vehicle: Klucel (hydroxypropylcellulose) (HPC) 100 % of control | [8] 96 % of control | dose: 200.0 mg/kg/injection, schedule: Q04DX002 (ip), vehicle: Klucel (hydroxypropylcellulose) (HPC) 87 % of control | [9] 86 % of control | dose: 400.0 mg/kg/injection, schedule: Q04DX002 (ip), vehicle: Klucel (hydroxypropylcellulose) (HPC) 97 % of control

O=C(CBr)Nc1ccc(C(=O)O)c(O)c1
inactive: dose: 12.5 mg/kg/injection, schedule: Q04DX003 (ip), vehicle: Klucel (hydroxypropylcellulose) (HPC) 103 % of control | [16] 92 % of control | [17] 92 % of control

N#CC1(Cc2ccc(Br)cc2)c2cc(OC(=O)c3ccccc3)ccc2C=CN1C(=O)c1ccccc1 (stereo not given)
inactive: [11] 96 % of control | [13] 99 % of control | [15] 99 % of control

Cc1nc(N)nc(N)c1CCCc1ccccc1
inactive: dose: 1.56 mg/kg/injection, schedule: Q01DX001 (ip), vehicle: saline with Tween-80 93 % of control | dose: 3.13 mg/kg/injection, schedule: Q01DX001 (ip), vehicle: saline with Tween-80 93 % of control | dose: 6.25 mg/kg/injection, schedule: Q01DX001 (ip), vehicle: saline with Tween-80 95 % of control and 97 % of control

CC1OC(=O)C(=O)C1(C)C (stereo not given)
inactive: dose: 32.0 mg/kg/injection, schedule: Q01DX001 (ip), vehicle: carboxymethylcellulose (CMC) 100 % of control | dose: 62.5 mg/kg/injection, schedule: Q01DX001 (ip), vehicle: carboxymethylcellulose (CMC) 102 % of control | dose: 125.0 mg/kg/injection, schedule: Q01DX001 (ip), vehicle: carboxymethylcellulose (CMC) 93 % of control | dose: 250.0 mg/kg/injection, schedule: Q01DX001 (ip), vehicle: carboxymethylcellulose (CMC) 100 % of control | dose: 500.0 mg/kg/injection, schedule: Q01DX001 (ip), vehicle: carboxymethylcellulose (CMC) 107 % of control

CCOC(=O)/C(C#N)=C1\CCc2cc(OC)ccc21
inactive: [7] 96 % of control | dose: 100.0 mg/kg/injection, schedule: Q01DX009 (ip), vehicle: other 103 % of control | [8] 90 % of control | dose: 200.0 mg/kg/injection, schedule: Q01DX009 (ip), vehicle: other 99 % of control | [9] 92 % of control | dose: 400.0 mg/kg/injection, schedule: Q01DX009 (ip), vehicle: other 97 % of control
